Laboratory results taken from ChEMBL document CHEMBL1201862, “PubChem BioAssay data set” (2004).
Active and inactive are the calls of the source.

What was measured:
[1] = Vero E6 cell cytotoxicity, dose response, cytotoxicity control for non-replicating M. tuberculosis project, secondary assay (AID 492998); assay type: functional, VeroE6; details: Vero C1008
[2] = THP-1 cell cytotoxicity, dose response, cytotoxicity control for non-replicating M. tuberculosis project (AID 489025); assay type: functional
Oxytocin receptor = Oxytocin receptor (Homo sapiens, UniProt P30559); assay: Fluorescence-based cell-based high throughput dose response assay for agonists of the Oxytocin Receptor (OXTR). [Related pubchem assays: 2435 (Primary screen (OXTR agonists in singlicate)), 434991 (Counterscreen (V1R agonists in triplicate)), 2482 (Summary (OXTR agonists)), 434963 (Confirmation screen (OXTR agonists in triplicate))]; assay type: functional
Oxytocin receptor, sequence (P30559 whole entry): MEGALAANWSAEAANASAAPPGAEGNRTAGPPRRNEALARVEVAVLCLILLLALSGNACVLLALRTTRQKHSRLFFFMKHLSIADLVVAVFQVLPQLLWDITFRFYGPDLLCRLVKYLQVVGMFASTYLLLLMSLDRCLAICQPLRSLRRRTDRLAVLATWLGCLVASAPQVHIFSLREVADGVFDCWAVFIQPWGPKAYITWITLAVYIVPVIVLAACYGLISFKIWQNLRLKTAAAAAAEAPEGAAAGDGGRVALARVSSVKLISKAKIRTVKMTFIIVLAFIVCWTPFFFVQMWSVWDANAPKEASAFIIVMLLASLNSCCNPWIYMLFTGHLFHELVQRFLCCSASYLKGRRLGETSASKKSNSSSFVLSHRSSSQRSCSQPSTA

[3] = HepG2 cell cytotoxicity, dose response, cytotoxicity control for non-replicating M. tuberculosis project (AID 489018); assay type: functional; details: Mycobacterium tuberculosis
cells = assay type: functional
Vasopressin V1a receptor = Vasopressin V1a receptor (Homo sapiens, UniProt P37288); assay: Counterscreen for Oxytocin Receptor (OXTR) agonists: Fluorescence-based cell-based high throughput dose response assay to identify agonists of the vasopressin 1 receptor (V1R). [Related pubchem assays: 2435 (Primary screen (OXTR agonists in singlicate)), 434991 (Counterscreen (V1R agonists in triplicate)), 2482 (Summary (OXTR agonists)) …; assay type: functional
Vasopressin V1a receptor, sequence (P37288 whole entry): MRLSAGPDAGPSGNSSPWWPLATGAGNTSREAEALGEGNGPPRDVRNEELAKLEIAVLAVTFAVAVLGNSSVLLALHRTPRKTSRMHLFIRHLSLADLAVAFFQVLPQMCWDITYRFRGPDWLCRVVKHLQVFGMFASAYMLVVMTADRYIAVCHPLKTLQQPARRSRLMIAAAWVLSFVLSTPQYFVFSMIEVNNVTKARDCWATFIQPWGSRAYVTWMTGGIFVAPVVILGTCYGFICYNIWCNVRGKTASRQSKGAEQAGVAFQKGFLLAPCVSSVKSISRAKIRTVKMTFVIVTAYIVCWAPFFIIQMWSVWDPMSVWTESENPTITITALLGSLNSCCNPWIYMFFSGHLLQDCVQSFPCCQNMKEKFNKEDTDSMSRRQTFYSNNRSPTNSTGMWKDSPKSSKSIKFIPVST

[4] = biological target: Dual specificity protein phosphatase 3 (Homo sapiens, UniProt P51452); assay: SAR VHR1 Fluorescent Assay for In Vitro dose response studies Set 2. [Related pubchem assays (depositor defined):AID1654, AID1661, AID1878]; assay type: functional
Dual specificity protein phosphatase 3, sequence (P51452 whole entry): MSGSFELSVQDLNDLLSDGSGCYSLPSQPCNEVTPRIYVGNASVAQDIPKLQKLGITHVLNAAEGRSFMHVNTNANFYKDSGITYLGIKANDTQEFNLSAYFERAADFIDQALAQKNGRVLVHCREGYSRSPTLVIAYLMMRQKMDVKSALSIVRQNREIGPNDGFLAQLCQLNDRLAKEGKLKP

[5] = biological target: T1, Tyrosine-protein phosphatase non-receptor type 7 (Homo sapiens, UniProt P35236); assay: SAR analysis of chemical inhibitors of HePTP using a Fluorescent assay - Set 2. [Related pubchem assays (depositor defined):AID1059, AID1077, AID1661, AID2085, AID521]; assay type: functional
T1 sequence (P35236 whole entry): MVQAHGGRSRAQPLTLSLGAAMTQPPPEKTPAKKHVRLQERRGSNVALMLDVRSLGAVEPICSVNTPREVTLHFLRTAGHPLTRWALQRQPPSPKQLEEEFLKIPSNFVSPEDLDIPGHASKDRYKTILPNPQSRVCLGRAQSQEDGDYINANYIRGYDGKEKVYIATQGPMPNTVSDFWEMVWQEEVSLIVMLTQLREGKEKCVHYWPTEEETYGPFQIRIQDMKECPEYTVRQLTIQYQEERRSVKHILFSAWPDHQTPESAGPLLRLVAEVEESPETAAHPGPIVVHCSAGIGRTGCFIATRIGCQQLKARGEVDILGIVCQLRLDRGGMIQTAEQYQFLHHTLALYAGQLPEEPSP

[6] = biological target: T2, Alkaline phosphatase, tissue-nonspecific isozyme (Homo sapiens, UniProt P05186); assay: human TNAP enzyme inhibitors, SAR follow-up, biochemical, luminescent, dose response (AID 1056)
T2 sequence (P05186 whole entry): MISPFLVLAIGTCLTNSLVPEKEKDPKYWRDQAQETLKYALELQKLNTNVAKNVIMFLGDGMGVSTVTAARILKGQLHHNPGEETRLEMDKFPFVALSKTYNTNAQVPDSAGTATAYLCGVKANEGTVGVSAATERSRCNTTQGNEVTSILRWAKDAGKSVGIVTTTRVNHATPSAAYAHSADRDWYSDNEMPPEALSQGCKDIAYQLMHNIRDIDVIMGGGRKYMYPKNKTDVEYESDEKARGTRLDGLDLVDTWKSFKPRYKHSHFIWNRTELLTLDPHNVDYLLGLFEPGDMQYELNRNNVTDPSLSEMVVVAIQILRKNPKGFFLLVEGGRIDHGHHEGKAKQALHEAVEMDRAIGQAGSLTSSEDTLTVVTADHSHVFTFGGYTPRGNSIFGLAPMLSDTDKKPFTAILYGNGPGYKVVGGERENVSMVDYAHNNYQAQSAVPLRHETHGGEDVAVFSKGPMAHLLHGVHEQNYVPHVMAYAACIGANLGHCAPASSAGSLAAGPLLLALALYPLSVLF

[7] = biological target: Glyceraldehyde-3-phosphate dehydrogenase (Homo sapiens, UniProt P04406)
Glyceraldehyde-3-phosphate dehydrogenase, sequence (P04406 whole entry): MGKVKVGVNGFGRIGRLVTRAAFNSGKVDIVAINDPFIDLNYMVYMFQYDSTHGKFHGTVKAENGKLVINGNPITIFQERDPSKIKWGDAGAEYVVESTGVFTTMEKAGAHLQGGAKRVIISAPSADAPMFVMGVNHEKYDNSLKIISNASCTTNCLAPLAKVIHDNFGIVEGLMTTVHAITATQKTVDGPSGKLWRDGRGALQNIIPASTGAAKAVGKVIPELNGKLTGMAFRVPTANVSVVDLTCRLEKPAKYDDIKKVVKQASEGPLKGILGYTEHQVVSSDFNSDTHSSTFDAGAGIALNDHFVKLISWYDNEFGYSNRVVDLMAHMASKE

HEK293 [8] = assay: cells; assay type: functional, cell-based; details: Homo sapiens
HEK293 [9] = assay: NOD2 signaling inhibitors in MDP-stimulated cells, cell-based, uHTS, luminescence (AID 2001); assay type: functional; details: Homo sapiens
HEK293 [10] = assay: NOD1 signaling inhibitors, primary screen, cell-based, luminescence, uHTS (AID 1578); assay type: functional; details: Homo sapiens
HEK293 [11] = assay: cells; assay type: functional, cell-based; details: Homo sapiens; remark: listed apart in the source
HEK293 [12] = assay: cells; assay type: functional, cell-based; details: Homo sapiens; remark: listed apart in the source
[13] = biological target: Nucleotide-binding oligomerization domain-containing protein 2 (Homo sapiens, UniProt Q9HC29); assay: NOD2 signaling inhibitors, cell-based, luminescence, uHTS, HEK293 (AID 1566); assay type: functional
Nucleotide-binding oligomerization domain-containing protein 2, sequence (Q9HC29 whole entry, the tested form may be a part): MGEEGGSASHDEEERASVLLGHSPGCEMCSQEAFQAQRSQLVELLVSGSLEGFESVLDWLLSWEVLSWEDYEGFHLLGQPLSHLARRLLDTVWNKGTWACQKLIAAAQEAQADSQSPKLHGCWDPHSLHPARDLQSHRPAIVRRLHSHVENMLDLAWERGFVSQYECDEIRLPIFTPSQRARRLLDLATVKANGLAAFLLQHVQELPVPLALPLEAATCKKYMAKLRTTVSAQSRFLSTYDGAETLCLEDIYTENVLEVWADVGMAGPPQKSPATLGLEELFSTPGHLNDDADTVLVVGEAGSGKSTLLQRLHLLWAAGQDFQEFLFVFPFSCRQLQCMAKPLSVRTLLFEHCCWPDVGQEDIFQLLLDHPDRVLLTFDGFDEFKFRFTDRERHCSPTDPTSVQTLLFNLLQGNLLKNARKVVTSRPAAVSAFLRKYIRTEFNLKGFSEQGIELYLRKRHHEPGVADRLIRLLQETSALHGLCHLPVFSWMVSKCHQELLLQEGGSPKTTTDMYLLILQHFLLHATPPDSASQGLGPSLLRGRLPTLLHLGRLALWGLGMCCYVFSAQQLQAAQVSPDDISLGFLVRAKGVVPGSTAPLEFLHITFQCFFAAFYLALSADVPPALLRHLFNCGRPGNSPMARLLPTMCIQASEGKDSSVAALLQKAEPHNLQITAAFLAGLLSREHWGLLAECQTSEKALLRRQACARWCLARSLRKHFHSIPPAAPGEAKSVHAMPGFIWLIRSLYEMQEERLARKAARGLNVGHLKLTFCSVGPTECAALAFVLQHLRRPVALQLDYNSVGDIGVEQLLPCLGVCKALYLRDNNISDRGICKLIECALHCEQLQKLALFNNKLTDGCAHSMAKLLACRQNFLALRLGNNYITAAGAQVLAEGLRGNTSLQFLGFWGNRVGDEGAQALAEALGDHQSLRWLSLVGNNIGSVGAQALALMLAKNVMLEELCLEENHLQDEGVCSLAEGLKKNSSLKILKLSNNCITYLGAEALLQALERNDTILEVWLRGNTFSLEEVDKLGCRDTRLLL

[14] = Luminescence Cell-Based Dose Response HTS to Identify Inhibitors of 5'UTR Stem-Loop Driven Prion Protein mRNA Translation in H4 Neuroglioblastoma Cells. [Related pubchem assays: 1827 (Project Summary), 1813 (Primary HTS)]; assay type: functional
[15] = inhibitors of firefly luciferase expression or activity, dose response, H4 neuroglioma cells, luminescence (AID 1990); assay type: functional, cell-based
[16] = inhibitors of SNCA 5'UTR-driven reporter translation, confirmation, H4 neuroglioma cells, luminescence (AID 1988); assay type: functional, cell-based
[17] = biological target: T3, E3 ubiquitin-protein ligase XIAP (Homo sapiens, UniProt P98170); assay: XIAP antagonists, biochemical, IAP family, fluorescence polarization (AID 1018); assay type: functional
T3 sequence (P98170 whole entry): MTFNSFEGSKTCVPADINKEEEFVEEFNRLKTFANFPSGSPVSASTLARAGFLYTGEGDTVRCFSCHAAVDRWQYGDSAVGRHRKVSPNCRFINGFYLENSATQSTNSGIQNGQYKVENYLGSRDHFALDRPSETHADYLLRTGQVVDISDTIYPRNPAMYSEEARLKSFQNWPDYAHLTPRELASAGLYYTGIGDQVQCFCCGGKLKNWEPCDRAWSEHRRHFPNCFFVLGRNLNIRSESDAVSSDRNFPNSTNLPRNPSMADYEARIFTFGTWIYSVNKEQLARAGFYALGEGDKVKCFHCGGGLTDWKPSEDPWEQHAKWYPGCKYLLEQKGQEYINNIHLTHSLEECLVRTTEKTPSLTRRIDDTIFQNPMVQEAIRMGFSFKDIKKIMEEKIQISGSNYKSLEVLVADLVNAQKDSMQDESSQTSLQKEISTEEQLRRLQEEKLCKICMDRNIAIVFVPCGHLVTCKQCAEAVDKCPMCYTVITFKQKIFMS

[18] = biological target: T3, E3 ubiquitin-protein ligase XIAP; assay: Counter Screen using XIAP-Bir3 for Chemical Antagonists of Bir1/2 domains of IAP-family anti-apoptotic proteins. [Related pubchem assays (depositor defined):AID1018, AID1449, AID1514, AID1638, AID1749, AID1750, AID488957, AID488963]
INS1 = assay: beta cell apoptosis inhibitors, cytokine rescue, dose response, luminescence, retest (AID 449756); assay type: functional, cell-based; details: Rattus norvegicus;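 note: cell death triggered by IL-1 beta plus TNF-alpha plus IFN-gamma mixture; protective hits raise ATP signal compared with cytokine alone wells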
[19] = biological target: T4, Kappa-type opioid receptor (Homo sapiens, UniProt P41145); assay type: functional
T4 sequence (P41145 whole entry): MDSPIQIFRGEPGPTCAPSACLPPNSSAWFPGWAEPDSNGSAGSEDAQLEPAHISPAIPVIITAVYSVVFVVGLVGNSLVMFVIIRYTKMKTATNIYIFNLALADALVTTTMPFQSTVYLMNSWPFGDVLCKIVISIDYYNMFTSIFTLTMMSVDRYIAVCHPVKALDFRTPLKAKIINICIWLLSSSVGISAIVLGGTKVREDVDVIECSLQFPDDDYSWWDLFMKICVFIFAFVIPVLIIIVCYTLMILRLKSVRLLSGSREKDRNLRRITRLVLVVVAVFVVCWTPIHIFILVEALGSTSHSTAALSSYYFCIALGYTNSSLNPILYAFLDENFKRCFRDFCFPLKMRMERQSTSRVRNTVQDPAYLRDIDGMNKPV

[20] = biological target: T5, Sphingosine 1-phosphate receptor 4 (Homo sapiens, UniProt O95977); assay: Fluorescence dose response cell-based high throughput screening assay for antagonists of the Sphingosine 1-Phosphate Receptor 4 (S1P4). [Related pubchem assays: 1524 (Confirmation in triplicates.), 1510 (Primary screen.)]; assay type: functional
T5 sequence (O95977 whole entry): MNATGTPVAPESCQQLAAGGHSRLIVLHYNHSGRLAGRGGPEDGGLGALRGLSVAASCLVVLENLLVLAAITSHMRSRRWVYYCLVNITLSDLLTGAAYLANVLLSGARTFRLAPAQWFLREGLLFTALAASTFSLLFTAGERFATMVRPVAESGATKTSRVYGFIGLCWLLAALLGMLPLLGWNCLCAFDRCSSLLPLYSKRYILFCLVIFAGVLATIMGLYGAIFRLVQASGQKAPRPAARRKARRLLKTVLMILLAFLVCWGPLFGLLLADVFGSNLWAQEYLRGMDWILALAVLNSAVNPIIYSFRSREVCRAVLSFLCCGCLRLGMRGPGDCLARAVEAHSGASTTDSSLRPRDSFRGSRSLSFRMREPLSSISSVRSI

[21] = nonselective inhibitors of cellular cAMP signaling, dose response, counter-screen for MC4R biased antagonist project, cell-based, TR-FRET cAMP detection (AID 602305); assay type: functional;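 note: U2OS cells stimulated with forskolin near its EC80 as the cAMP inducer; potency is for inhibition of forskolin-stimulated cAMP signaling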
[22] = biological target: T4, Kappa-type opioid receptor; assay type: functional; remark: listed apart in the source
Melanocortin receptor 4 = Melanocortin receptor 4 (Homo sapiens, UniProt P32245); assay: MC4R antagonist potency on cAMP, dose response, cell-based, TR-FRET, biased antagonists (AID 602298); assay type: functional;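 note: antagonist potency against agonist-stimulated cAMP production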
Melanocortin receptor 4, sequence (P32245 whole entry): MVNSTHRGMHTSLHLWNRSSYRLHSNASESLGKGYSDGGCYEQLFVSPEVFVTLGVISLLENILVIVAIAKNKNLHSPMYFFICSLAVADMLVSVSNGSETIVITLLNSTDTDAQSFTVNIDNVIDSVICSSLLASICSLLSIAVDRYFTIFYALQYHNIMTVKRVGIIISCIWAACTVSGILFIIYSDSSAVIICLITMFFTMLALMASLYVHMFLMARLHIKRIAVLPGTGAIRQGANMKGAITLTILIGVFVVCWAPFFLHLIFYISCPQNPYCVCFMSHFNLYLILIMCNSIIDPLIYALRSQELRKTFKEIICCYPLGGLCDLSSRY

[23] = biological target: Sphingosine 1-phosphate receptor 1 (Homo sapiens, UniProt P21453); assay type: functional;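 note: Tango beta-arrestin reporter U2OS cells stimulated with S1P near its EC80; inhibitor potency meaning antagonism of receptor activation by the natural agonist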
Sphingosine 1-phosphate receptor 1, sequence (P21453 whole entry): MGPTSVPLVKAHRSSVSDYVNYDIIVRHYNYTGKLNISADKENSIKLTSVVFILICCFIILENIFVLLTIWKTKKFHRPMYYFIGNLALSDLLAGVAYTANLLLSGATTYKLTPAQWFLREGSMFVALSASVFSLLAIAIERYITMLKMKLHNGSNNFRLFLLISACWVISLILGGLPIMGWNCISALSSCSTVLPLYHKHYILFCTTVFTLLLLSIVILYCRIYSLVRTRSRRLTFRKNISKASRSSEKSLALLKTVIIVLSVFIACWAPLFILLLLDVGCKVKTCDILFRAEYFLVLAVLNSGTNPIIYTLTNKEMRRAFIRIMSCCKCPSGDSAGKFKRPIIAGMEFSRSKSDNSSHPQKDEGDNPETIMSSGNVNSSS

Beta-galactosidase = Beta-galactosidase (Escherichia coli, UniProt Q8VNN2); assay type: functional
Beta-galactosidase, sequence (Q8VNN2 whole entry): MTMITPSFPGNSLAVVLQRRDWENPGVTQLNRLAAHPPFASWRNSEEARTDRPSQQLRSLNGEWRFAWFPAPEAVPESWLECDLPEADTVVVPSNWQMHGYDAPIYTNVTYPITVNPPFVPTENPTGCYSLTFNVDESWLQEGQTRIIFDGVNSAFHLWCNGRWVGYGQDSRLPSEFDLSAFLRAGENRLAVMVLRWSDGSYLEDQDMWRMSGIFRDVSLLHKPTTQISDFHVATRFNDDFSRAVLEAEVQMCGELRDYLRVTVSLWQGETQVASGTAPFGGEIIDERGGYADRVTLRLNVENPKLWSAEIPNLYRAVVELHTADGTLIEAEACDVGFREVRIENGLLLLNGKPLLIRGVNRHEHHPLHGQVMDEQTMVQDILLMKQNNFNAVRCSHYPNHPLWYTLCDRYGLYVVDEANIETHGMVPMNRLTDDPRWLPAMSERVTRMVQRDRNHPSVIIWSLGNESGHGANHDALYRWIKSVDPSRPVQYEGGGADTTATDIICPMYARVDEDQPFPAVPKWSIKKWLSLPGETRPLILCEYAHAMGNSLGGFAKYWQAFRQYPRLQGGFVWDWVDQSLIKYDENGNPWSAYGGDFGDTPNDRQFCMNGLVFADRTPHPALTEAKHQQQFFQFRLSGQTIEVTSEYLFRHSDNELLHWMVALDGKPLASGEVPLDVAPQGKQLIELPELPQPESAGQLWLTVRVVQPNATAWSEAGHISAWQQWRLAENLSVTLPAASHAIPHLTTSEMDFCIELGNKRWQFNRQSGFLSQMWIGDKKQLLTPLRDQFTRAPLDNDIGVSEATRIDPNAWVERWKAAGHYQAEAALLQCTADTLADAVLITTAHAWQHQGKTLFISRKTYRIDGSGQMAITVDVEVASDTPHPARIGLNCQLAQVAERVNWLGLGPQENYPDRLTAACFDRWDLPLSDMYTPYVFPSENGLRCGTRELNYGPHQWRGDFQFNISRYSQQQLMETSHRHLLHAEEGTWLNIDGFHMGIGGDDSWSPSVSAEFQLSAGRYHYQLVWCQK

[24] = cytotoxicity in HEK-293T cells, dose response, cytotoxicity control for BCR NF-kB inhibitor project, luminescence, B-cell screen hits (AID 489021); assay type: functional, cell-based;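 note: HEK-293T cells carrying an NF-kB luciferase reporter; cells exposed to compound for about 14 hours before viability readout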
Hexokinase HKDC1 = biological target: T6, Hexokinase HKDC1 (Homo sapiens, UniProt Q2TB90); assay: HKDC1 hexokinase inhibitors, dose response, biochemical, W721R variant (AID 504729); assay type: functional
T6 sequence (Q2TB90 whole entry): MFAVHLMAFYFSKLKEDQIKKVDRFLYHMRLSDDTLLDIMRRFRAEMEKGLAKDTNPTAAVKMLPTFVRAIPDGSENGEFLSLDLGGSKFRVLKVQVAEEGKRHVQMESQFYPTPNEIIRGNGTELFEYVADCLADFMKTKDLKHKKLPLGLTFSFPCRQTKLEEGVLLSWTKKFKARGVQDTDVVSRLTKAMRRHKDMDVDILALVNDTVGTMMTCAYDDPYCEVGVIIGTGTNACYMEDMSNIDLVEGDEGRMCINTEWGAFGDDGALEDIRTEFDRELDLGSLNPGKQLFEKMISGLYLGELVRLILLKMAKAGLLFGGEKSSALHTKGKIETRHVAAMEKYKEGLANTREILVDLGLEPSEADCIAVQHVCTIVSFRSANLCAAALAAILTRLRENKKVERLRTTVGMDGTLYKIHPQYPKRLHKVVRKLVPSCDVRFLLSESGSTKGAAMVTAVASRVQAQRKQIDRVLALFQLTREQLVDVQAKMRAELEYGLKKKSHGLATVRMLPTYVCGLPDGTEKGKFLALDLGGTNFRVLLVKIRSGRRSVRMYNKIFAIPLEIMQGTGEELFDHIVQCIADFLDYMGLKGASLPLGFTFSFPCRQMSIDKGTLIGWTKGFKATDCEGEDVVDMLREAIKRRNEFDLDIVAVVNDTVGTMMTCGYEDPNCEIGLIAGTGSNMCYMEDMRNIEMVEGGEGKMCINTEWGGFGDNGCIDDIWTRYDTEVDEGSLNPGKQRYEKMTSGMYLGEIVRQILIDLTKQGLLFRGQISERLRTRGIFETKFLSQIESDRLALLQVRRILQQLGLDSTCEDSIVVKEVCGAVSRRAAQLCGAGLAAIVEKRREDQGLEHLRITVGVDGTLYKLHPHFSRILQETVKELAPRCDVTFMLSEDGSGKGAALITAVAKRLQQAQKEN

[25] = Luminescence-based cell-based high throughput dose response assay to identify activators of the DAF-12 from the parasite S. stercoralis (ssDAF-12).; assay type: functional

Clc1ccc2c(c1)C(N1CCNCC1)Cc1ccccc1S2 (stereo not drawn)
CC50 [1]: 11.5 µM (active)
CC50 [2]: 12 µM (active)
EC50 (Oxytocin receptor): > 9.97 µM (active)
CC50 [3]: 8.65 µM (active)
IC50 (cells): 15.5 µM (active)
EC50 (Vasopressin V1a receptor): 21.3 µM (not active)

COc1cc(C(=S)NCc2cccc(C(F)(F)F)c2)ccc1O
IC50 [4]: 47 µM (active)
IC50 [5]: 55 µM (active)

O=C1C2CCCCC2C(=O)N1c1ncn[nH]1 (stereo not drawn)
IC50 [6]: > 100 µM (inactive)
IC50 [7]: > 100 µM (not active)

CCOc1ccccc1C(=O)N1CCN(C(c2ccccc2)c2ccccc2)CC1
IC50 (HEK293 [8]): > 20 µM (inactive)
IC50 (HEK293 [9]): > 20 µM (inactive)
EC50 (HEK293 [10]): 14.3 µM (active)
IC50 (HEK293 [11]): > 20 µM (inactive)
IC50 (HEK293 [12]): 15.7 µM (active)
EC50 [13]: 13 µM (active)

NS(=O)(=O)c1ccc(NC(=S)N2CCN(Cc3ccc(Cl)c(Cl)c3)CC2)cc1
EC50 [14]: > 120 µM (not active)
IC50 [4]: > 100 µM (inactive)
EC50 [15]: 34.5 µM (active)
EC50 [16]: > 120 µM (not active)
IC50 [5]: 48.4 µM (active)

COc1ccc(CC2(CO)CCN(Cc3cnn(C)c3)CC2)cc1
IC50 [17]: > 100 µM (not active)
IC50 [18]: > 100 µM (inactive)

COc1ccc(C(=O)/C(=C\c2ccco2)N2C=CC=CC2=C(C#N)C#N)cc1
EC50 [14]: 12.3 µM (active)
AC50 (INS1): 5.51 µM (active)
IC50 [19]: 5.93 µM (active)
IC50 [20]: 2.01 µM (active)
IC50 [21]: > 64.6 µM (inactive)
IC50 [22]: 18 µM
EC50 [15]: 7.21 µM (inconclusive)
EC50 [16]: 0.141 µM (active)
IC50 (Melanocortin receptor 4): > 64.6 µM (inactive)
IC50 [23]: 9.37 µM (active)
EC50 (Beta-galactosidase): > 31.5 µM (inactive)

CCC(=O)N1c2ccccc2[C@@H](N(C(C)=O)c2ccccc2)C[C@H]1C
IC50 [24]: > 80 µM (inactive)

O=c1ccc2nccc3c4c(O)cccc4n1c23
EC50 [14]: 9.94 µM (active)
EC50 [15]: 12.7 µM (active)
EC50 [16]: 11.9 µM (active)
IC50 [24]: > 80 µM (inactive)

COc1ccc(NC(=O)CSc2ccc(-c3cccnc3)nn2)c(OC)c1
IC50 (Hexokinase HKDC1): 17.8 µM (active)

Cc1c(C(=O)N2CCc3ccccc32)oc2ccccc12
IC50 [17]: > 100 µM (not active)
IC50 [25]: > 67.6 µM (inactive)
IC50 [18]: > 100 µM (inactive)
